Target: wild-type Epidermal Growth Factor Receptor (EGFR) (Homo sapiens (Human), UniProt P00533)
Test: WT-EGFR kinase assay (TR-FRET, 2 mM ATP)
Format: biochemical
Settings: median or individual measurements, Table 3, read-out: EGFR Wildtyp-2mM ATP IC50 [mol/l] (median)
Description: Inhibitory activity of compounds of the present invention against wild-type Epidermal Growth Factor Receptor (EGFR) was quantified employing the TR-FRET based EGFR assay as described in the following paragraphs.
Recombinant fusion protein of N-terminal Glutathion-S-Transferase (GST) and a fragment of human EGFR (amino acids R669 to A1210), expressed in Sf9 insect cells and purified via affinity chromatography using Glutathion Sepharose as described above, was used as kinase. As substrate for the kinase reaction the biotinylated peptide biotin-Ahx-AEEEEYFELVAKKK (C-terminus in amide form) was used which can be purchased e.g. form the company Biosynthan GmbH (Berlin-Buch, Germany).
For the assay 50 nl of a 100 fold concentrated solution of the test compound in DMSO was pipetted into either a black low volume 384 well microtiter plate or a black 1536 well microtiter plate (both Greiner Bio-One, Frickenhausen, Germany), 2 μL of a solution of EGFR in aqueous assay buffer [50 mM Hepes pH 7.0, 10 mM MgCl2, 1 mM dithiothreitol, 0.5 mM EGTA, 0.3 mM activated sodium ortho-vanadate, 0.005% (w/v) bovine serum albumin, 0.005% (v/v) Tween-20] were added and the mixture was incubated for 15 min at 22° C. to allow pre-binding of the test compounds to the enzyme before the start of the kinase reaction. Then the kinase reaction was started by the addition of 3 μL of a solution of adenosine-tri-phosphate (ATP, 3.33 mM=>final conc. in the 5 μL assay volume is 2 mM) and substrate (1.67 μM=>final conc. in the 5 μL assay volume is 1 μM) in assay buffer and the resulting mixture was incubated for a reaction time of 30 min at 22° C. The concentration of EGFR was adjusted depending of the activity of the enzyme lot and was chosen appropriate to have the assay in the linear range, typical concentration was 7.6 pg/μL. The reaction was stopped by the addition of 3 μL of a solution of HTRF detection reagents (83.3 nM streptavidine-XL665 [Cisbio Bioassays, Codolet, France] and 1.67 nM PT66-Tb-Cryptate, a terbium-cryptate labelled anti-phospho-tyrosine antibody from Cisbio Bioassays [instead of the PT66-Tb-cryptate PT66-Eu-Chelate from Perkin Elmer can also be used]) in an aqueous EDTA-solution (133.3 mM EDTA, 0.2% (w/v) bovine serum albumin in 50 mM HEPES pH 7.5).
The resulting mixture was incubated 1 h at 22° C. to allow the binding of the biotinylated phosphorylated peptide to the streptavidine-XL665 and the PT66-Tb-Cryptate. Subsequently the amount of phosphorylated substrate was evaluated by measurement of the resonance energy transfer from the PT66-Tb-Cryptate to the streptavidine-XL665. Therefore, the fluorescence emissions at 620 nm and 665 nm after excitation at 337 nm were measured in a HTRF reader, e.g. a Pherastar (BMG Labtechnologies, Offenburg, Germany) or a Viewlux (Perkin-Elmer). The ratio of the emissions at 665 nm and at […] was taken as the measure for the amount of phosphorylated substrate. The data were normalised (enzyme reaction without inhibitor=0% inhibition, all other assay components but no enzyme=100% inhibition).

Sequence of wild-type Epidermal Growth Factor Receptor (EGFR) (P00533 669-1210): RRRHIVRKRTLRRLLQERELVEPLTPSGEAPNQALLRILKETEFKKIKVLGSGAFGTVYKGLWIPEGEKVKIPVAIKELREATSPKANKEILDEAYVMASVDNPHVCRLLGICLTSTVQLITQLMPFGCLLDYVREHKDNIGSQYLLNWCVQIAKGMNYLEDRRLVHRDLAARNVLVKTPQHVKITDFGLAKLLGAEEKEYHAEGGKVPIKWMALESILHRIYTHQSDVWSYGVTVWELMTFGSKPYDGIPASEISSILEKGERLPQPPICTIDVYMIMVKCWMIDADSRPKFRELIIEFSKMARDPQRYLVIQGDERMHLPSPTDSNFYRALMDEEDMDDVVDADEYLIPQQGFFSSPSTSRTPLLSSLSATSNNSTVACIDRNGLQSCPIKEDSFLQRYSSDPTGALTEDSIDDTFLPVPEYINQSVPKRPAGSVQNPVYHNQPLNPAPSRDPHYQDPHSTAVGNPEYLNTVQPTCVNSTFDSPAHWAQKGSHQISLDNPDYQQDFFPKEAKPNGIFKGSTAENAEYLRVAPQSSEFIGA

SMILES	IC50
CCC1CNC(=O)c2c1[nH]c(-c1ccnc(NC(=O)Cc3ccc(F)cc3)c1)c2Nc1ccccc1 (racemic) [Example 1, N-{4-[3-anilino-7-ethyl-4-oxo-4,5,6,7-tetrahydro-1H-pyrrolo[3,2-c]pyridin-2-yl]pyridin-2-yl}-2-(4-fluorophenyl)acetamide]	0.057 µM
CCc1c[nH]c(=O)c2c(Nc3ccccc3)c(-c3ccnc(NC(=O)C(CC(F)F)c4ccc(F)cc4)c3)[nH]c12 (racemic) [Example 5, N-[4-(3-anilino-7-ethyl-4-oxo-4,5-dihydro-1H-pyrrolo[3,2-c]pyridin-2-yl)pyridin-2-yl]-4,4-difluoro-2-(4-fluorophenyl)butanamide]	7.3 µM
CC1CN(C)C(=O)c2c1[nH]c(-c1ccnc(NC(=O)Cc3ccc(F)cc3)c1)c2Nc1ccccc1 (racemic) [Example 6, N-{4-[3-anilino-5,7-dimethyl-4-oxo-4,5,6,7-tetrahydro-1H-pyrrolo[3,2-c]pyridin-2-yl]pyridin-2-yl}-2-(4-fluorophenyl)acetamide]	1.4 µM
CC1CN(C)C(=O)c2c1[nH]c(-c1ccnc(NC(=O)C(C)c3ccc(F)cc3)c1)c2Nc1ccccc1 (racemic) [Example 9, N-{4-[(7RS)-3-anilino-5,7-dimethyl-4-oxo-4,5,6,7-tetrahydro-1H-pyrrolo[3,2-c]pyridin-2-yl]pyridin-2-yl}-2-(4-fluorophenyl)propanamide]	13 µM
Cc1cn(C)c(=O)c2c(Nc3ccccc3)c(-c3ccnc(NC(=O)C(CC(F)F)c4ccc(F)cc4)c3)[nH]c12 (racemic) [Example 11, N-[4-(3-anilino-5,7-dimethyl-4-oxo-4,5-dihydro-1H-pyrrolo[3,2-c]pyridin-2-yl)pyridin-2-yl]-4,4-difluoro-2-(4-fluorophenyl)butanamide]	> 20 µM
CN1CC(CC(F)(F)F)c2[nH]c(-c3ccnc(NC(=O)Cc4ccc(F)cc4)c3)c(Nc3ccccc3)c2C1=O (racemic) [Example 14, N-{4-[3-anilino-5-methyl-4-oxo-7-(2,2,2-trifluoroethyl)-4,5,6,7-tetrahydro-1H-pyrrolo[3,2-c]pyridin-2-yl]pyridin-2-yl}-2-(4-fluorophenyl)acetamide]	1.1 µM
CN1CC(CC2CC2)c2[nH]c(-c3ccnc(NC(=O)Cc4ccc(F)cc4)c3)c(Nc3ccccc3)c2C1=O (racemic) [Example 18, N-{4-[3-anilino-7-(cyclopropylmethyl)-5-methyl-4-oxo-4,5,6,7-tetrahydro-1H-pyrrolo[3,2-c]pyridin-2-yl]pyridin-2-yl}-2-(4-fluorophenyl)acetamide]	4.3 µM
O=C1N[C@@H]2CCC[C@@H]2c2[nH]c(-c3ccnc(NC(=O)C(CC(F)F)c4ccc(F)cc4)c3)c(Nc3ccccc3)c21 (mixture of isomers) [Example 21, (2RS)—N-{4-[cis-3-anilino-4-oxo-1,4,5,5a,6,7,8,8a-octahydrocyclopenta[b]pyrrolo[2,3-d]pyridin-2-yl]pyridin-2-yl}-4,4-difluoro-2-(4-fluorophenyl)butanamide]	4.5 µM
Cn1ccc2[nH]c(-c3ccnc(NC(=O)C(CC(F)F)c4ccc(F)cc4)c3)c(Nc3ccccc3)c2c1=O (racemic) [Example 28, N-[4-(3-anilino-5-methyl-4-oxo-4,5-dihydro-1H-pyrrolo[3,2-c]pyridin-2-yl)pyridin-2-yl]-4,4-difluoro-2-(4-fluorophenyl)butanamide]	12 µM
Cc1cc2[nH]c(-c3ccnc(NC(=O)C(CC(F)F)c4ccc(F)cc4)c3)c(Nc3ccccc3F)c2c(=O)n1C (racemic) [Example 31, 4,4-difluoro-N-{4-[3-(2-fluoroanilino)-5,6-dimethyl-4-oxo-4,5-dihydro-1H-pyrrolo[3,2-c]pyridin-2-yl]pyridin-2-yl}-2-(4-fluorophenyl)butanamide]	> 20 µM
Cc1cn(C)c(=O)c2c(Nc3ccccc3)c(-c3ccnc(NC(=O)C(C)c4ccc(F)cc4)c3)[nH]c12 (racemic) [Example 39, N-[4-(3-anilino-5,7-dimethyl-4-oxo-4,5-dihydro-1H-pyrrolo[3,2-c]pyridin-2-yl)pyridin-2-yl]-2-(4-fluorophenyl)propanamide]	18 µM
CN1CC(CC(F)F)c2[nH]c(-c3ccnc(NC(=O)Cc4ccc(F)cc4)c3)c(Nc3ccccc3)c2C1=O (racemic) [Example 42, N-{4-[3-anilino-7-(2,2-difluoroethyl)-5-methyl-4-oxo-4,5,6,7-tetrahydro-1H-pyrrolo[3,2-c]pyridin-2-yl]pyridin-2-yl}-2-(4-fluorophenyl)acetamide]	1.1 µM
CN1CC(CC(F)(F)F)c2[nH]c(-c3ccnc(NC(=O)Cc4ccc(F)cc4)c3)c(Nc3cscn3)c2C1=O (racemic) [Example 46, 2-(4-fluorophenyl)-N-{4-[(7RS)-5-methyl-4-oxo-3-(1,3-thiazol-4-ylamino)-7-(2,2,2-trifluoroethyl)-4,5,6,7-tetrahydro-1H-pyrrolo[3,2-c]pyridin-2-yl]pyridin-2-yl}acetamide]	> 20 µM
CN1CC(CC2CC2)c2[nH]c(-c3ccnc(NC(=O)Cc4ccc(F)cc4)c3)c(Nc3cscn3)c2C1=O (racemic) [Example 49, N-{4-[(7RS)-7-(cyclopropylmethyl)-5-methyl-4-oxo-3-(1,3-thiazol-4-ylamino)-4,5,6,7-tetrahydro-1H-pyrrolo[3,2-c]pyridin-2-yl]pyridin-2-yl}-2-(4-fluorophenyl)acetamide]	> 20 µM
CN1CC(CC(F)(F)F)c2[nH]c(-c3ccnc(NC(=O)C(CC(F)F)c4ccc(F)cc4)c3)c(Nc3cscn3)c2C1=O (racemic) [Example 52, (2RS)-4,4-difluoro-2-(4-fluorophenyl)-N-{4-[(7RS)-5-methyl-4-oxo-3-[(1,3-thiazol-4-yl)amino]-7-(2,2,2-trifluoroethyl)-4,5,6,7-tetrahydro-1H-pyrrolo[3,2-c]pyridin-2-yl]pyridin-2-yl}butanamide]	> 20 µM
CCC1CNC(=O)c2c1[nH]c(-c1ccnc(NC(=O)Cc3ccc(F)cc3)c1)c2Nc1ccccc1 (single isomer, unassigned) [Example 2, N-{4-[3-anilino-7-ethyl-4-oxo-4,5,6,7-tetrahydro-1H-pyrrolo[3,2-c]pyridin-2-yl]pyridin-2-yl}-2-(4-fluorophenyl)acetamide]	0.19 µM
CCC1CNC(=O)c2c1[nH]c(-c1ccnc(NC(=O)Cc3ccc(F)cc3)c1)c2Nc1ccccc1 (single isomer, unassigned) [Example 3, N-{4-[3-anilino-7-ethyl-4-oxo-4,5,6,7-tetrahydro-1H-pyrrolo[3,2-c]pyridin-2-yl]pyridin-2-yl}-2-(4-fluorophenyl)acetamide]	0.32 µM
Cc1cn(C)c(=O)c2c(Nc3ccccc3)c(-c3ccnc(NC(=O)C(CC(F)F)c4ccc(F)cc4)c3)[nH]c12 (single isomer, unassigned) [Example 12, N-[4-(3-anilino-5,7-dimethyl-4-oxo-4,5-dihydro-1H-pyrrolo[3,2-c]pyridin-2-yl)pyridin-2-yl]-4,4-difluoro-2-(4-fluorophenyl)butanamide]	> 20 µM
Cc1cn(C)c(=O)c2c(Nc3ccccc3)c(-c3ccnc(NC(=O)C(CC(F)F)c4ccc(F)cc4)c3)[nH]c12 (single isomer, unassigned) [Example 13, N-[4-(3-anilino-5,7-dimethyl-4-oxo-4,5-dihydro-1H-pyrrolo[3,2-c]pyridin-2-yl)pyridin-2-yl]-4,4-difluoro-2-(4-fluorophenyl)butanamide]	> 20 µM
CN1CC(CC(F)(F)F)c2[nH]c(-c3ccnc(NC(=O)Cc4ccc(F)cc4)c3)c(Nc3ccccc3)c2C1=O (single isomer, unassigned) [Example 15, N-{4-[3-anilino-5-methyl-4-oxo-7-(2,2,2-trifluoroethyl)-4,5,6,7-tetrahydro-1H-pyrrolo[3,2-c]pyridin-2-yl]pyridin-2-yl}-2-(4-fluorophenyl)acetamide]	2.9 µM
CN1CC(CC(F)(F)F)c2[nH]c(-c3ccnc(NC(=O)Cc4ccc(F)cc4)c3)c(Nc3ccccc3)c2C1=O (single isomer, unassigned) [Example 16, N-{4-[3-anilino-5-methyl-4-oxo-7-(2,2,2-trifluoroethyl)-4,5,6,7-tetrahydro-1H-pyrrolo[3,2-c]pyridin-2-yl]pyridin-2-yl}-2-(4-fluorophenyl)acetamide]	1.8 µM
